Assay results taken from patent publication US9388123B2, “LSD1-selective inhibitor having lysine structure” (KYOTO UNIVERSITY, priority 2012, dated 2016).
Where a name gives a salt, the structure may show the parent alone.

Columns and labels:
[1] = system: SH-SY5Y cells; assay: Cancer cell growth inhibition evaluation (MTT assay); type: cell-based; conditions: Homo sapiens, read-out: GI50 (μM) SH-SY5Y
In short: (§1)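 HeLa and SH-SY5Y cells exposed to compound for 48 hours, then MTT added for 3 hours. Formazan dissolved in HCl–isopropanol and absorbance read at 560 nm to determine viable cells.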

[2] = system: HeLa cells; assay: as above; type: cell-based; conditions: Homo sapiens, 48 h, read-out: GI50 (μM) HeLa
In short: as §1

[3] = system: K562; assay: Leukemia cell growth inhibition evaluation (WST-8); type: cell-based; conditions: Homo sapiens, day 3 (72-hour culture), read-out: Human leukemia cell line GI50 (μM) K562
In short: (§2)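 Seed 5,000 cells per well, add compound diluted in medium (final 0–50 μM, same DMSO level), and culture under CO2. At day 0 and days 1–3, incubate with WST-8 for 1 h, then read 450 nm minus 595 nm, subtracting a medium-only blank.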

[4] = system: M7; assay: Leukemia cell growth inhibition evaluation (WST-8); type: cell-based; conditions: Homo sapiens; day 3 (72-hour culture); read-out: Human leukemia cell line GI50 (μM) M7
In short: as §2

[5] = target: T1, monoamine oxidase B (MAO-B) (Homo sapiens, UniProt P27338); assay: Monoamine oxidase inhibition test (MAO-Glo assay kit); type: biochemical; conditions: room temperature, 1 hour
T1 construct: purchased Sigma-Aldrich
T1 sequence (P27338 1-520): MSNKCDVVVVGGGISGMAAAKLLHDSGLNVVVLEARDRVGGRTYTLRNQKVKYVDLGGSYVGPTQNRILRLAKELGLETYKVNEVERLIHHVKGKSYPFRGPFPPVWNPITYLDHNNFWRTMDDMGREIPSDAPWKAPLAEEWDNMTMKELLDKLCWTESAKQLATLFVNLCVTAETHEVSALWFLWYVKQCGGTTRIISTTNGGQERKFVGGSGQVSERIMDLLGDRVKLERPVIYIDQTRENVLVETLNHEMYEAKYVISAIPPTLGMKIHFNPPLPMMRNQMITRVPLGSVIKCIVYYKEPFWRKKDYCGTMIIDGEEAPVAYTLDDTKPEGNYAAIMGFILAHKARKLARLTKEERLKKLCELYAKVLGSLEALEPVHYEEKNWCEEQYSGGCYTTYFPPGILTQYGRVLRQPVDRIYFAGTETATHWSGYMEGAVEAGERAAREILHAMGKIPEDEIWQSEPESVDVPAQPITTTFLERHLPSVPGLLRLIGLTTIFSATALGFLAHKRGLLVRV
Method: To the reaction liquid was added 50 μL of a luciferin detection reagent, and the mixture was subjected to a reaction at room temperature for 20 minutes.

Compound | GI50 [1] [µM] | GI50 [2] [µM] | GI50 [3] [µM] | GI50 [4] [µM] | IC50 [5] [µM]
O=C(N[C@@H](CCCCNC1CC1c1ccccc1)C(=O)NCc1ccccc1)c1ccc(-c2ccccc2)cc1 (stereo partly drawn) [Example 8, 2-[N-(4-Phenylbenzenecarbonyl)]amino-6-(trans-2-phenylcyclopropan-1-amino)-N-benzylhexanamide Hydrochloride] | 4 | 11 | 3.2 | ~6 | > 100
O=C(N[C@@H](CCCCNC1CC1c1ccccc1)C(=O)NCc1cccc(C(F)(F)F)c1)c1ccc(-c2ccccc2)cc1 (stereo partly drawn) [Example 19, 2-[N-(4-Phenylbenzenecarbonyl)]amino-6-(trans-2-phenylcyclopropan-1-amino)-N-(3-trifluoromethylbenzyl)hexanamide Hydrochloride] | 2.9 | 4.3 |  |  | > 100
